# Values of other authors as cited in the PKSmart pharmacokinetics tables (Seal et al. 2025).
# Assay: not given per row; by the article one of three: Lombardo et al. 2013, J Clin Pharmacol 53:178, doi 10.1177/0091270012440282; 'New Drugs at FDA', novel drug approvals for 2021 and 2022 (the article's reference 43); Yap, Li, Chen 2006, J Mol Graph Model 24:383, doi 10.1016
# Conditions: human; in vivo
Compound,clearance [mL/min/kg],half-life [h],Vd [L/kg]
O=C(OCCN1CCCCCC1)C(c1ccsc1)C1CCCCC1 (stereo not drawn),18.3,,
NC(C(=O)NC1C(=O)N2C(C(=O)O)=C(Cl)CS[C@H]12)c1ccccc1 (stereo partly drawn),6.1,,
C[C@](O)(CS(=O)(=O)c1ccc(F)cc1)C(=O)Nc1ccc(C#N)c(C(F)(F)F)c1,3.67,,
Nc1ccn(C[C@H](CO)OCP(=O)(O)O)c(=O)n1,2.3,,
C=CCc1ccccc1OC[C@H](O)CNC(C)C,6.47,,
CN1c2ccccc2[C@H](NCCCCCCC(=O)O)c2ccc(Cl)cc2S1(=O)=O,3.43,,
Cc1cc2c(s1)Nc1ccccc1N=C2N1CCN(C)CC1,5.81,43.5,
NC[C@H](CC(=O)O)c1ccc(Cl)cc1,2.72,,
CCC(C)C(=O)O[C@@H]1C[C@@H](O)C=C2C=C[C@@H](C)[C@H](CC[C@H](O)C[C@H](O)CC(=O)O)[C@H]21 (stereo partly drawn),8.5,,
C[C@H](CC(c1ccccc1)c1ccccc1)NC(C)(C)C,0.95,,
CC(=O)OCC1=C(C(=O)O)N2C(=O)C(NC(=O)Cc3cccs3)[C@@H]2SC1 (stereo partly drawn),6.7,,
O=C(CCC(C(=O)O)N1CCN(C(CCC(=O)NCC(O)CO)C(=O)O)Cc2cccc(n2)CN(C(CCC(=O)NCC(O)CO)C(=O)O)CC1)NCC(O)CO (stereo not drawn),1.67,1.5,0.22
CN[C@H]1CCc2[nH]c3ccc(C(N)=O)cc3c2C1,3.09,,
C[C@@H](CN(C)C)CN1c2ccccc2CCc2ccccc21,15.9,,
CCN(CC)c1cc(C)n2ncnc2n1,3.79,,
C[C@@H]1c2cccc(O)c2C(=O)C2=C(O)[C@]3(O)C(=O)C(C(N)=O)=C(O)[C@H](N(C)C)[C@H]3[C@H](O)[C@H]21,0.52,,
CCOc1ncc(C)c2c1[C@H](c1ccc(C#N)cc1OC)C(C(N)=O)C(C)=N2 (stereo partly drawn),6.94,2.5,0.88
CCOC(=O)Nc1c[n+](N2CCOCC2)no1,9.52,,
CC(=O)N(C[C@H](O)CO)c1c(I)c(C(=O)NCCO)c(I)c(C(=O)NC[C@H](O)CO)c1I,1.44,,
C=CCN1CCc2nc(N)sc2CC1,7.38,,
CCc1ccc(CCOc2ccc(Cc3sc(=O)[nH]c3O)cc2)nc1,1.43,,
C[C@@](Cc1ccc(O)c(O)c1)(NN)C(=O)O,18,,
Cc1c(C(C)C)c(=O)n(-c2ccccc2)n1C,11,,
CCN1CCC[C@@H]1CNC(=O)c1cc(S(=O)(=O)CC)c(N)cc1OC,7.8,,
OCCOCCN1CCN(C2=Nc3ccccc3Sc3ccccc32)CC1,19.1,,
O=C(O)c1cc(O)c2c(c1)C(=O)c1cccc(O)c1C2=O,0.38,,
CCCC(NC(C)C(=O)N1C(C(=O)O)C[C@@H]2CCCC[C@H]21)C(=O)OCC (stereo partly drawn),6.19,,

Compound,clearance [mL/min/kg],half-life [h],Vd [L/kg]
C[C@H](O)C1C(=O)N2C(C(=O)[O-])=C(SC3Cn4cnc[n+]4C3)[C@@H](C)[C@@H]12 (stereo partly drawn),2.77,,
NC(=O)CN1CCCC1=O,1.3,,
CCN1C[C@@H](CCN2CCOCC2)C(c2ccccc2)(c2ccccc2)C1=O,5.75,,
CN1c2c(oc(=O)n(-c3ccccn3)c2=O)-c2ccccc2S1(=O)=O,0.05,,
CCCC[C@](C)(O)C/C=C\[C@H]1C(CCCCCCC(=O)OC)C(=O)C[C@@H]1O (stereo partly drawn),240,,
CC(C)(ON=C(C(=O)CC1C(=O)N2C(C(=O)O)=C(C[n+]3ccccc3)CS[C@H]12)c1csc(N)n1)C(=O)[O-] (stereo partly drawn),1.88,,
CC(C)(C)NC[C@@H](O)COc1cccc2c1C[C@H](O)[C@@H](O)C2,2.94,,
CCN1CCCC1CNC(=O)c1c(OC)ccc(Br)c1OC (stereo not drawn),1.7,,
CCOC(=O)C(CCc1ccccc1)NC(C)C(=O)N1Cc2ccccc2CC1C(=O)O (stereo not drawn),26.4,,
CCCCC1(CCCC)CN(c2ccccc2)c2cc(SC)c(OCC(=O)NC(C(=O)NC(CC)C(=O)O)c3ccc(O)cc3)cc2S(=O)(=O)N1 (stereo not drawn),,2.36,
COC(=O)C1=C(C)NC(C)=C(C(=O)OC(C)C)[C@H]1c1cccc2nonc12,9.52,,
COc1ccc(-n2nccn2)c(C(=O)N2CCC[C@@]2(C)c2nc3c(C)c(Cl)ccc3[nH]2)c1,,8,0.52
O=C(O)CCC(NC(=O)NC(CCCCNC(=O)C(Cc1ccc2ccccc2c1)NC(=O)C1CCC(CNC(=O)CN2CCN(CC(=O)O)CCN(CC(=O)O)CCN(CC(=O)O)CC2)CC1)C(=O)O)C(=O)O (stereo not drawn),0.567,41.6,2.05
CCN(CC)CCC[C@@H](C)Nc1ccnc2cc(Cl)ccc12,7.09,,
CC(=O)NC(CCS)C(=O)O (stereo not drawn),2.06,,
O=C(c1ccc(NS(=O)(=O)c2cccc3cccnc23)cc1)N1CCN(CC2CC2)CC1,3.47,4,0.71
C[C@@H]1COc2c(N3CCN(C)CC3)c(F)c(C(=O)O)c3c(=O)ccn1c23,3.5,,
CON=C(C(=O)NC1C(=O)N2C(C(=O)[O-])=C(C[N+]34CCC(C(N)=O)(CC3)CC4)CS[C@H]12)c1nsc(N)n1 (stereo partly drawn),2.15,,
CC(C)CC(NC(=O)C(Cc1ccccc1)NC(=O)C(N)Cc1ccccc1)C(=O)NC(CCCCN)C(=O)N1CCC(N)(C(=O)O)CC1 (stereo not drawn),3.97,,
CC/C(=C(/c1ccccc1)c1ccc(OCCN(C)C)cc1)c1ccccc1,1.4,,
CN(C[C@H](O)CO)C(=O)c1c(I)c(NC(=O)C(CO)CO)c(I)c(C(=O)N(C)C[C@H](O)CO)c1I,1.33,,
CC(C)NC[C@@H](O)COc1ccc(CCOCC2CC2)cc1,4.7,,
O=C(O)CCCCCCNC1c2ccccc2CCc2ccccc21,29.6,,
CC(C)NC[C@@H](O)c1ccc(NS(C)(=O)=O)cc1,2.14,,
COCCCOc1ccnc(C[S@@+](O)c2nc3ccccc3[n-]2)c1C,6,,
NS(=O)(=O)c1cc2c(cc1Cl)N=CNS2(=O)=O,4.5,,
